Some targets named below: D(1A) dopamine receptor (Homo sapiens, UniProt P21728); Histamine H3 receptor (Homo sapiens, UniProt Q9Y5N1); Mu-type opioid receptor (Homo sapiens, UniProt P35372).
Test [1] deals with T1, Alpha-1A adrenergic receptor (Homo sapiens, UniProt P35348).
T1 sequence (P35348 whole entry): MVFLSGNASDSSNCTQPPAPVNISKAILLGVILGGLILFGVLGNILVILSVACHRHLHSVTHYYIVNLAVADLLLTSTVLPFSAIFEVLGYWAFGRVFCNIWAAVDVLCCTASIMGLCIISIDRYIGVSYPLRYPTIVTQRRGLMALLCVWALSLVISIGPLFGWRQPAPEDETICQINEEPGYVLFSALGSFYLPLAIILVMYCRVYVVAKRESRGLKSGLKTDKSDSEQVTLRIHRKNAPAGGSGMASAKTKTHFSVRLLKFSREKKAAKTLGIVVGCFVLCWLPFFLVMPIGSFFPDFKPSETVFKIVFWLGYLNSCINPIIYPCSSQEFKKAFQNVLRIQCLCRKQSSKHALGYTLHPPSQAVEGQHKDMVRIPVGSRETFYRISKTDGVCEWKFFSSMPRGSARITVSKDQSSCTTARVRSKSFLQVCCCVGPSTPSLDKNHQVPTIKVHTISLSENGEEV
The class given is functional, cell-based.

Test [2] concerns the target T1, Alpha-1A adrenergic receptor. The class given is functional, cell-based. This is another data set of the same source.
The target of test [3] is T2, Muscarinic acetylcholine receptor M2 (Homo sapiens, UniProt P08172).
T2 sequence (P08172 whole entry): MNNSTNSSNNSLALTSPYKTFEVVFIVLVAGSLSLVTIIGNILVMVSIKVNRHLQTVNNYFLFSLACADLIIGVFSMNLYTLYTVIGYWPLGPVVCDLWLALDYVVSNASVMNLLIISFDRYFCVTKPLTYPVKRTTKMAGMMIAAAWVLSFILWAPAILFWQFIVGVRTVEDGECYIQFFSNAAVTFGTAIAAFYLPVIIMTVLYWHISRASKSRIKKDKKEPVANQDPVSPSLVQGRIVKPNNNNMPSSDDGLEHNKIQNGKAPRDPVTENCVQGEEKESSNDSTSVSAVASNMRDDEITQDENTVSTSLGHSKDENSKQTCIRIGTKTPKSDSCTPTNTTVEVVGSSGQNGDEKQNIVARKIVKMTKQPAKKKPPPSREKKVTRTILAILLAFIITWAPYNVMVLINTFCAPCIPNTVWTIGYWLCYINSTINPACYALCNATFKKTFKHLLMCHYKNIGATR

Test [4] has as its target 3',5'-cyclic-AMP phosphodiesterase 4A (Homo sapiens, UniProt P27815). The class given is functional.
A further test has as its target T3, Progesterone receptor (Homo sapiens, UniProt P06401).
T3 sequence (P06401 whole entry): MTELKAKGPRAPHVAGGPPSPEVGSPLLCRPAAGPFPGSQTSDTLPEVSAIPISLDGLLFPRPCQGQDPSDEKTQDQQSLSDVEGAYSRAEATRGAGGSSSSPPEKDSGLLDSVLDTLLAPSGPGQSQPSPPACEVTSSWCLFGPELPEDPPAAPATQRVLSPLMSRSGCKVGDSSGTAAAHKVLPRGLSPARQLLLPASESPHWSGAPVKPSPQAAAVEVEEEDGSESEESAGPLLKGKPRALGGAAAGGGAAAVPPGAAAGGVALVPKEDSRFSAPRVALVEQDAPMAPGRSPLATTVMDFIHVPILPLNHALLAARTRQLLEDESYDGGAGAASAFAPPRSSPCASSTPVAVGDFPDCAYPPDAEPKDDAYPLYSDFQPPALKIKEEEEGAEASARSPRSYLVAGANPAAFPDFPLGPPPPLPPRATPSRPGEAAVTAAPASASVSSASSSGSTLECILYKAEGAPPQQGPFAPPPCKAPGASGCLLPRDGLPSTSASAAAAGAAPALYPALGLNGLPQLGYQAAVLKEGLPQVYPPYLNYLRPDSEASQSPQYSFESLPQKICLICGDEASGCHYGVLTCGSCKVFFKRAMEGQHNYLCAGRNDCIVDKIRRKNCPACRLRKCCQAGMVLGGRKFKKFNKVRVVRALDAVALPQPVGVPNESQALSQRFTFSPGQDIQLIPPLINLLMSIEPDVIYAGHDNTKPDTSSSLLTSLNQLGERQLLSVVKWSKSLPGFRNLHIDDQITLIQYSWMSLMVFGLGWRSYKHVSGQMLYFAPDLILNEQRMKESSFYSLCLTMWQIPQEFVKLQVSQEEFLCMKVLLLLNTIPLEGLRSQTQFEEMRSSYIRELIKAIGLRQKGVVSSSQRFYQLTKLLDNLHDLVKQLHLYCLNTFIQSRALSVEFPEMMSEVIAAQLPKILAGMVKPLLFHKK

Test [5] addresses Prostaglandin G/H synthase 1 (Homo sapiens, UniProt P23219). The test is classed as functional.
Another test has as its target T4, Thromboxane A2 receptor (Homo sapiens, UniProt P21731).
T4 sequence (P21731 whole entry): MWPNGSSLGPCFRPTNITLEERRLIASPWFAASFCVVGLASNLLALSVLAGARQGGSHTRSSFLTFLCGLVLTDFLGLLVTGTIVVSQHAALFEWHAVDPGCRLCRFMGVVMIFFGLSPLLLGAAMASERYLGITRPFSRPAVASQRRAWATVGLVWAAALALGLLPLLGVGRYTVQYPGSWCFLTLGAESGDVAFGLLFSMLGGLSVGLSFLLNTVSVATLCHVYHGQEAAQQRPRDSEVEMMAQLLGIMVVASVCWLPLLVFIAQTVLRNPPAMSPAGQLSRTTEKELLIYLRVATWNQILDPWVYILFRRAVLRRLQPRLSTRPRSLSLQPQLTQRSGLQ
The class given is functional, cell-based.
Also: assay procedure not described here.

Chain of Prostaglandin G/H synthase 1 (P23219 whole entry): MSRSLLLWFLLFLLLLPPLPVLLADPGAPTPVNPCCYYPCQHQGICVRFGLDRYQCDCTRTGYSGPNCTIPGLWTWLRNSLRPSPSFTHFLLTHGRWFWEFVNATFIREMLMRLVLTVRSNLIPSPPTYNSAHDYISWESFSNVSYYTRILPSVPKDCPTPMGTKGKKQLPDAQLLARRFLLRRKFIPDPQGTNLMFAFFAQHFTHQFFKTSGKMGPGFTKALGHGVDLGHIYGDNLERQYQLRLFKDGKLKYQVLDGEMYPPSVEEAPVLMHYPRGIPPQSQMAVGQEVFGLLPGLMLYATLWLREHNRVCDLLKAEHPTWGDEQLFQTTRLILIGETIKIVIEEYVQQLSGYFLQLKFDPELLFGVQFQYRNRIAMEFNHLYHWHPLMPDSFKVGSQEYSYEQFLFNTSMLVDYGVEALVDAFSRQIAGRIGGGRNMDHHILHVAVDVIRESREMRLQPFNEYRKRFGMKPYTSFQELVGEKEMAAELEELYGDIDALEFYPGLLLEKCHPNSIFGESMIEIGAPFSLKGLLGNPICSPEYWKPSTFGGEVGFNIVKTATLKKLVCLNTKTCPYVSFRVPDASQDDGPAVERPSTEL
Chain of 3',5'-cyclic-AMP phosphodiesterase 4A (P27815 whole entry): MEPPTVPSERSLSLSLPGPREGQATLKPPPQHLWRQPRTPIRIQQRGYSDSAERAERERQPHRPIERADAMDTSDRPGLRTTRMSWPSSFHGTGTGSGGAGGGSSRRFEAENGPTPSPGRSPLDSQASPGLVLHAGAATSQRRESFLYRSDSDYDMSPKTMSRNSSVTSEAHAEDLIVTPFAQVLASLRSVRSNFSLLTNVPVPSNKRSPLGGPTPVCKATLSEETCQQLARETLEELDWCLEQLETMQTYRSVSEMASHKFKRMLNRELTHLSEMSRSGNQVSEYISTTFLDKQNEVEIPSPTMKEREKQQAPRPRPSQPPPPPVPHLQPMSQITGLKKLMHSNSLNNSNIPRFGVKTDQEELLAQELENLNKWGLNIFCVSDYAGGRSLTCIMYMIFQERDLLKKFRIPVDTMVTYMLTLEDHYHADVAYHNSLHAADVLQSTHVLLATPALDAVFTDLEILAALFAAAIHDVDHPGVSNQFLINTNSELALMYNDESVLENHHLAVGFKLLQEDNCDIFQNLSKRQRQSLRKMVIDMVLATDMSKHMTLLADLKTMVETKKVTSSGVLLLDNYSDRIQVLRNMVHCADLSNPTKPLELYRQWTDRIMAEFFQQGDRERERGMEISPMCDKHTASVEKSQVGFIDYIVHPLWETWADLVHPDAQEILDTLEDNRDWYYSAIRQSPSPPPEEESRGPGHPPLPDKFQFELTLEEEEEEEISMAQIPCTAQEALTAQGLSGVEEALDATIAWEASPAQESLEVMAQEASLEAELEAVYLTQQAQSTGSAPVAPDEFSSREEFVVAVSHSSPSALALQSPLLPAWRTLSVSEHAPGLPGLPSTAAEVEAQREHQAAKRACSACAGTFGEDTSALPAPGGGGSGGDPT
Chain of Histamine H3 receptor (Q9Y5N1 whole entry): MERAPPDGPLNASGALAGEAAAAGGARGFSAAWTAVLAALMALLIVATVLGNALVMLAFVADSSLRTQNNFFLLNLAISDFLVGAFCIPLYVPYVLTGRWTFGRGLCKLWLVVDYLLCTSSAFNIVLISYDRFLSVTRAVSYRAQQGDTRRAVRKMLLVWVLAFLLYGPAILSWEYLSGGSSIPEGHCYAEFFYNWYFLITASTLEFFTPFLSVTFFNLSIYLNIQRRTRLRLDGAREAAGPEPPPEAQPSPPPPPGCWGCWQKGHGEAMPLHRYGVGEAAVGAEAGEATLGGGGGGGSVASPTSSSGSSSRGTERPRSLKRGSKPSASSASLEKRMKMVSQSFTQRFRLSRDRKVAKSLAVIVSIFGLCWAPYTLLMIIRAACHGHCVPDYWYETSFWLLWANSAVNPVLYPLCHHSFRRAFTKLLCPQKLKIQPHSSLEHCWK
Chain of Mu-type opioid receptor (P35372 whole entry): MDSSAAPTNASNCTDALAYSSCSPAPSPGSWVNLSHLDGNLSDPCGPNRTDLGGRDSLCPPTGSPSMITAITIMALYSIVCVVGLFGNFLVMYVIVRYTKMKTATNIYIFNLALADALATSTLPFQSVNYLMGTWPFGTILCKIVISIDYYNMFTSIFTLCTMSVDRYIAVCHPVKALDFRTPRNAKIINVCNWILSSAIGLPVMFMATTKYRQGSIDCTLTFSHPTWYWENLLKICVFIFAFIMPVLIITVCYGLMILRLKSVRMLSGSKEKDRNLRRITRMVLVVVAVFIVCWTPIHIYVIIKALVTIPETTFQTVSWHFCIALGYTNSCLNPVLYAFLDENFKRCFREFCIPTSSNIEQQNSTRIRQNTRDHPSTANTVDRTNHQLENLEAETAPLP
Chain of D(1A) dopamine receptor (P21728 whole entry): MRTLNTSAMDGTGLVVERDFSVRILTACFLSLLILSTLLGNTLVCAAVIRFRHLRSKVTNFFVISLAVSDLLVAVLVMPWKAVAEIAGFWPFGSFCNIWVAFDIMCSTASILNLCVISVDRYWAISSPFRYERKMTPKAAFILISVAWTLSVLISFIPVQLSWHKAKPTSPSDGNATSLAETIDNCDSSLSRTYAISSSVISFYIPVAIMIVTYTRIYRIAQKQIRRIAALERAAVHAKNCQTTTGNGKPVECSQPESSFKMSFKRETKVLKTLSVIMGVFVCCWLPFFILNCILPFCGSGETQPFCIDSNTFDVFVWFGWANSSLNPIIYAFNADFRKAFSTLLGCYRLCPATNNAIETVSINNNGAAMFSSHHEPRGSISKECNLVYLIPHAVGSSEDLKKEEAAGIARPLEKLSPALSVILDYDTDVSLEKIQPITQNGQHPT

Turning to `Cc1cnc(C(=O)O)c[n+]1[O-]` [ACIPIMOX], the half-maximal activity concentration (AC50) (in test [1]; in test [2]; in [3]; on D(1A) dopamine receptor; at Histamine H3 receptor; on Mu-type opioid receptor) was over 30 µM in each case. Further, the AC50 (in [4]; at Progesterone receptor; in test [5]; on Thromboxane A2 receptor) was over 30 µM in each case.

For `N=C(N)NC(=O)c1nc(Cl)c(N)nc1N` [AMILORIDE], the AC50 (in test [1]; in test [2]; in test [3]; on D(1A) dopamine receptor; at Histamine H3 receptor; at Mu-type opioid receptor) was over 30 µM in each case. Also, the AC50 (in test [4]; on Progesterone receptor; in test [5]; on Thromboxane A2 receptor) was over 30 µM each time.

Turning to `Nc1ccc(C(=O)NCC(=O)O)cc1` [AMINOHIPPURIC ACID], the concentration at half-maximal activity (AC50) (in [1]; in [2]; in test [3]; at D(1A) dopamine receptor; at Histamine H3 receptor; on Mu-type opioid receptor) was over 30 µM in each case. The half-maximal activity concentration (AC50) (in test [4]; on Progesterone receptor; in test [5]; at Thromboxane A2 receptor) was over 30 µM each time.

In the case of `CC1(C)S[C@@H]2[C@H](NC(=O)[C@H](NC(=O)c3cnc4cccnc4c3O)c3ccccc3)C(=O)N2[C@H]1C(=O)O` [APALCILLIN], the AC50 (in test [1]; in test [2]; in [3]; at D(1A) dopamine receptor; at Histamine H3 receptor; at Mu-type opioid receptor) was over 30 µM each time. Moreover, the half-maximal activity concentration (AC50) in [4] was over 30 µM; on Progesterone receptor, over 30 µM; in [5], 14.6 µM; at Thromboxane A2 receptor it was over 30 µM.

Turning to `Cn1c(CCCC(=O)O)nc2cc(N(CCCl)CCCl)ccc21` [BENDAMUSTINE], the AC50 (in [1]; in test [2]; in [3]; on D(1A) dopamine receptor; on Histamine H3 receptor; at Mu-type opioid receptor) was over 30 µM in each case. Moreover, the half-maximal activity concentration (AC50) was over 30 µM in test [4], over 30 µM on Progesterone receptor, 5.8 µM in [5] and over 30 µM on Thromboxane A2 receptor.

As to `O=C(OOC(=O)c1ccccc1)c1ccccc1` [BENZOYL PEROXIDE], the AC50 (in test [1]; in [2]; in [3]; on D(1A) dopamine receptor; on Histamine H3 receptor; at Mu-type opioid receptor) was over 30 µM in each case. The half-maximal activity concentration (AC50) (in test [4]; on Progesterone receptor; in test [5]; at Thromboxane A2 receptor) was over 30 µM throughout.

As to `OCc1ccccc1` [BENZYL ALCOHOL], the AC50 (in test [1]; in [2]; in test [3]; on D(1A) dopamine receptor; on Histamine H3 receptor; at Mu-type opioid receptor) was over 30 µM in each case. Moreover, the AC50 (in [4]; at Progesterone receptor; in test [5]; on Thromboxane A2 receptor) was over 30 µM throughout.

In the case of `C[C@H]1C[C@H]2[C@@H]3CCC4=CC(=O)C=C[C@]4(C)[C@@]3(F)[C@@H](O)C[C@]2(C)[C@@]1(O)C(=O)CO` [BETAMETHASONE], the AC50 (in test [1]; in [2]; in [3]; on D(1A) dopamine receptor; on Histamine H3 receptor; at Mu-type opioid receptor) was over 30 µM each time. Further, the AC50 was over 30 µM in [4], 11.4 µM on Progesterone receptor, over 30 µM in [5] and over 30 µM at Thromboxane A2 receptor.

Regarding `O=c1[nH]c(=O)n([C@H]2C[C@H](O)[C@@H](CO)O2)cc1/C=C/Br` [BRIVUDINE], the AC50 (in test [1]; in test [2]; in test [3]; at D(1A) dopamine receptor; on Histamine H3 receptor; at Mu-type opioid receptor) was over 30 µM in each case. Moreover, the half-maximal activity concentration (AC50) (in test [4]; at Progesterone receptor; in [5]; on Thromboxane A2 receptor) was over 30 µM in each case.

Consider `CC(C)(C)NCC(O)COc1ccccc1C#N` (stereo not given) [BUNITROLOL], for which the concentration at half-maximal activity (AC50) (in [1]; in test [2]; in test [3]; at D(1A) dopamine receptor; at Histamine H3 receptor; on Mu-type opioid receptor) was over 30 µM each time. Moreover, the half-maximal activity concentration (AC50) (in test [4]; on Progesterone receptor; in test [5]; on Thromboxane A2 receptor) was over 30 µM in each case.

With `Nc1ccn(C[C@@H](CO)OCP(=O)(O)O)c(=O)n1` [CIDOFOVIR], the concentration at half-maximal activity (AC50) (in test [1]; in test [2]; in test [3]; on D(1A) dopamine receptor; at Histamine H3 receptor; at Mu-type opioid receptor) was over 30 µM in each case. Besides, the half-maximal activity concentration (AC50) (in [4]; on Progesterone receptor; in test [5]; at Thromboxane A2 receptor) was over 30 µM in each case.

In the case of `CC1(C)C[C@@H]1C(=O)N/C(=C\CCCCSC[C@H](N)C(=O)O)C(=O)O` [CILASTATIN], the AC50 (in test [1]; in test [2]; in test [3]; at D(1A) dopamine receptor; on Histamine H3 receptor; at Mu-type opioid receptor) was over 30 µM throughout. Also, the AC50 (in [4]; on Progesterone receptor; in [5]; at Thromboxane A2 receptor) was over 30 µM throughout.

For the molecule `COc1c(OCCCN2CCOCC2)ccc2c1N=C(NC(=O)c1cnc(N)nc1)N1CCN=C21` [COPANLISIB], the AC50 was over 30 µM in test [1]; over 30 µM in test [2]; 5.64 µM in test [3]; over 30 µM on D(1A) dopamine receptor; over 30 µM on Histamine H3 receptor; over 30 µM at Mu-type opioid receptor. Moreover, the AC50 (in test [4]; on Progesterone receptor; in test [5]; on Thromboxane A2 receptor) was over 30 µM throughout.

For the origin of these results see ChEMBL document CHEMBL5291721, “A preclinical secondary pharmacology resource illuminates target-adverse drug reaction associations of marketed drugs” (Nat Commun, 2023).
